Data on 35 compounds can be found in PubChem BioAssay (NCI).

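A five-concentration, 48-hour dose response in 96-well plates underlies each endpoint, interpolated linearly between surrounding concentrations. At the TGI there is no net growth.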 Some results are limits rather than exact numbers.

For the first assay, the system named is OVCAR-3 ovarian. The assay is described as follows: inhibition of tumour cell growth, NCI panel, 48 h.
Turning to `Cc1nc(N)c(N2CCN([N+](=O)[O-])CC2)c(=O)[nH]1`, the TGI was over 100 µM. Same read-out and setting: with `Cc1ccc(S(=O)(=O)N/N=C/C2(c3ccccc3)c3ccccc3-c3ccccc32)cc1` the figure was 20.8 µM; with `Oc1ccc([I+]c2ccccc2)cc1O`, over 100 µM. On the same count and under the same terms, the same measure for `CC1=NN(c2cccc(Cl)c2)C2(C1=C/C=C/c1ccccc1)C(Cl)C(=O)N2c1nc2ccccc2s1` (configuration not stated): over 80.9 µM.

The test system of the next assay is PC-3 prostate. The assay can be described thus: inhibition of tumour cell growth, NCI panel, 48 h.
In turn, `CC1(C)CCCC2OC2CCC(C)(C)C1=O` (configuration not stated) yielded a TGI of over 100 µM. Still for that read-out and setting: the same measure for `O=C1NCC2(CCN(CCCC3(c4ccc(F)cc4)OCCO3)CC2)N1c1ccccc1`: over 100 µM; for `COc1ccc2c(c1)/C(=C\c1c(Cl)nc3sc(C)cn13)C(=O)N2`: 12.4 µM; for `O=C1c2ccccc2-c2c1c(-c1ccc(F)cc1)nc1ccc3ccccc3c21`: over 100 µM. Still for that read-out and setting: with `O=C(/C=C/c1ccc2c(c1)OCO2)CC(=O)C(=O)c1c[nH]c2ccccc12` the figure was over 100 µM; with `O=C(Nc1nccs1)c1c(O)nc2sccn2c1=O`, over 10 µM; with `O=c1[nH]c(=O)n(C2OC(CO)C(O)C2O)c2nc(-c3ccc(-c4ccccc4)cc3)cnc12` (configuration not stated), over 100 µM. On the same count and under the same terms, the same measure for `CC1=NN(c2cccc(Cl)c2)C2(SCC(=O)N2c2nc3ccccc3s2)/C1=C\c1ccccc1O` (configuration not stated): 61.1 µM.

In turn, `O=C1NCCN1/N=C/c1c(Cl)n(-c2ccccc2)c2ccccc12` came in with a TGI of 98.8 µM. The same measure, in the same setting: with `CCCCCCOc1ccc(C(=O)NOC)cc1` the figure was over 100 µM; with `Cc1c(S(=O)(=O)c2ccccc2)c(N)n(CCN(C)C)c1C`, over 100 µM; with `N=C(N)SCc1ccc2c(c1)Sc1ccccc1O2`, 16.5 µM. Compound `CC1CCC(C(=O)O)(C(Br)C(=O)O)CC1` (configuration not stated) returned a TGI of over 100 µM.

For `COc1cc(NS(C)(=O)=O)ccc1Nc1cc(C)[nH]c2ccc3nccc3c12`, the TGI was over 100 µM.

`CCCC(=O)OC1CC(n2cc(F)c(=O)[nH]c2=O)OC1COP(=O)(OCC(Cl)(Cl)Cl)OCC(Cl)(Cl)Cl` (configuration not stated) yielded a TGI of over 100 µM. The same measure, in the same setting: with `CCOC(=O)Cn1c(=O)c2nc(SC)sc2n(-c2ccccc2)c1=O` the figure was over 100 µM. With `O=[N+]([O-])C(/C=C(\Cl)n1nnc2ccccc21)=C(/Cl)n1nnc2ccccc21`, the TGI is over 100 µM. Same read-out and setting: the same measure for `CS(=O)(=O)OCC(CCl)(CCl)CCl`: over 100 µM; for `COc1ccc2c(C)cc(=O)oc2c1OC`: over 100 µM; for `OCCc1ccsc1-c1sc(-c2cc(CCO)c(-c3sccc3CCO)s2)cc1CCO`: 24.1 µM.

As for `O=c1[nH]c(Nc2nc3ccccc3[nH]2)nc(O)c1-c1ccccc1`, the TGI is over 100 µM. Same read-out and setting: with `O=[N+]([O-])c1ccc(Oc2c(Cl)cc(S(=O)(=O)/N=C(\NO)Nc3ccc(Cl)cc3)cc2Cl)cc1` the figure was 22.2 µM. Still for that read-out and setting: the same measure for `CCOC(=O)c1ccc(NCC#CCN2CCOCC2)cc1`: over 100 µM; for `CCN(CCCN(CC)C(=O)Nc1c(C)cccc1C)C(=O)Nc1c(C)cccc1C`: over 100 µM; for `CSC(=S)N/N=C(\C)c1ccc(S(=O)(=O)N(C)c2ccccc2)cc1`: over 100 µM. Still for that read-out and setting: the same measure for `CCNC(=O)Cc1nc2c(N)ncnc2n1C1OC(CO)C(O)C1O` (configuration not stated): over 100 µM. Compound `COc1ccc(C2=N/C(=C\c3ccccc3)C(=O)O2)cc1` yielded a TGI of over 100 µM. `CC1(C)C2CCC1(C)[C@H](n1c(=O)n([C@@H]3CC4CCC3(C)C4(C)C)c(=O)n([C@@H]3CC4CCC3(C)C4(C)C)c1=O)C2` gave a TGI of over 100 µM. On to `Cc1nc(N)c(N2CCN([N+](=O)[O-])CC2)c(=O)[nH]1`, for which the TGI was over 100 µM.

Consider `Cc1ccc(S(=O)(=O)N/N=C/C2(c3ccccc3)c3ccccc3-c3ccccc32)cc1`, for which the TGI is 13.4 µM. The same measure, in the same setting: with `Oc1ccc([I+]c2ccccc2)cc1O` the figure was 64.1 µM. Still for that read-out and setting: with `N#CC12C(=O)N=C(N)C1(C#N)C(c1ccco1)NC1=C2CCCC1` (configuration not stated) the figure was over 100 µM; with `CC1=NN(c2cccc(Cl)c2)C2(C1=C/C=C/c1ccccc1)C(Cl)C(=O)N2c1nc2ccccc2s1` (configuration not stated), over 82.9 µM.

Another assay deals with MDA-MB-231 breast. The assay is described as follows: inhibition of tumour cell growth, NCI panel, 48 h.
`CC1(C)CCCC2OC2CCC(C)(C)C1=O` (configuration not stated) had a TGI of over 100 µM. Same read-out and setting: with `O=C1NCC2(CCN(CCCC3(c4ccc(F)cc4)OCCO3)CC2)N1c1ccccc1` the figure was over 100 µM.

With `COc1ccc2c(c1)/C(=C\c1c(Cl)nc3sc(C)cn13)C(=O)N2`, the TGI came out at 17.7 µM. Same read-out and setting: with `O=C1c2ccccc2-c2c1c(-c1ccc(F)cc1)nc1ccc3ccccc3c21` the figure was over 100 µM. Same read-out and setting: with `O=C(/C=C/c1ccc2c(c1)OCO2)CC(=O)C(=O)c1c[nH]c2ccccc12` the figure was over 100 µM; with `O=C(Nc1nccs1)c1c(O)nc2sccn2c1=O`, over 10 µM; with `O=c1[nH]c(=O)n(C2OC(CO)C(O)C2O)c2nc(-c3ccc(-c4ccccc4)cc3)cnc12` (configuration not stated), over 100 µM. `CC1=NN(c2cccc(Cl)c2)C2(SCC(=O)N2c2nc3ccccc3s2)/C1=C\c1ccccc1O` (configuration not stated): the TGI stood at 67.9 µM.

As for `O=C1NCCN1/N=C/c1c(Cl)n(-c2ccccc2)c2ccccc12`, the TGI was 44.1 µM. The same measure, in the same setting: the same measure for `CCCCCCOc1ccc(C(=O)NOC)cc1`: over 100 µM.

In the case of `Cc1c(S(=O)(=O)c2ccccc2)c(N)n(CCN(C)C)c1C`, the TGI was over 100 µM.

`N=C(N)SCc1ccc2c(c1)Sc1ccccc1O2` came in with a TGI of 45.2 µM. The compound `CC1CCC(C(=O)O)(C(Br)C(=O)O)CC1` (configuration not stated) had a TGI of over 100 µM.

`COc1cc(NS(C)(=O)=O)ccc1Nc1cc(C)[nH]c2ccc3nccc3c12` had a TGI of over 100 µM. Same read-out and setting: with `CCCC(=O)OC1CC(n2cc(F)c(=O)[nH]c2=O)OC1COP(=O)(OCC(Cl)(Cl)Cl)OCC(Cl)(Cl)Cl` (configuration not stated) the figure was over 100 µM.

`CCOC(=O)Cn1c(=O)c2nc(SC)sc2n(-c2ccccc2)c1=O` yielded a TGI of over 100 µM. `O=[N+]([O-])C(/C=C(\Cl)n1nnc2ccccc21)=C(/Cl)n1nnc2ccccc21`: the TGI was over 100 µM. As for `CS(=O)(=O)OCC(CCl)(CCl)CCl`, the TGI was over 100 µM. On the same count and under the same terms, with `CSC(=S)N(C)C` the figure was over 100 µM; with `COc1ccc2c(C)cc(=O)oc2c1OC`, over 100 µM; with `CN(C)c1ccc(S(=O)Nc2ccccc2)cc1` (configuration not stated), over 100 µM. Same read-out and setting: the same measure for `OCCc1ccsc1-c1sc(-c2cc(CCO)c(-c3sccc3CCO)s2)cc1CCO`: 48.5 µM; for `O=c1[nH]c(Nc2nc3ccccc3[nH]2)nc(O)c1-c1ccccc1`: over 100 µM; for `O=[N+]([O-])c1ccc(Oc2c(Cl)cc(S(=O)(=O)/N=C(\NO)Nc3ccc(Cl)cc3)cc2Cl)cc1`: 25.3 µM. The same measure, in the same setting: with `CCOC(=O)c1ccc(NCC#CCN2CCOCC2)cc1` the figure was over 100 µM.
